{"source": "patent US11806367B2", "about": "“Methods of treating lysosomal disorders” (The Regents of the University of California, priority 2017, dated 2023)", "key": {"Ctns^−/− mice": {"test_system": "Ctns^−/− mice", "method": "Ctns^−/− mice were exposed to myeloablative drugs currently used in clinic for HSC transplantation, Busulfan (Bu) and Cyclophosphamide (Cy) to test if drug-mediated myeloablation allow efficient engraftment of Ctns-expressing HSC in the preclinical model, decreased tissue cystine and to determine if any unexpected toxicity occurs because of cystinosis. Drugs were injected intraperitoneally (IP) in Ctns^−/− mice and WT mice as controls."}, "[1]": {"conditions": "affected patients; cited from earlier work"}}, "note": "Where two headings read alike, the source gives them in different places.", "data": [{"smiles": "CS(=O)(=O)OCCCCOS(C)(=O)=O", "note": "[Bu, Busulfan]", "values": [{"measurement": "donor cell engraftment measured in the peripheral blood", "setting": "Ctns^−/− mice; 4 months post-transplant", "result": "94.0±0.8", "unit": "%"}, {"measurement": "toxicity in Ctns^−/− mice", "setting": "Ctns^−/− mice; mouse, in vivo, ip", "result": "not toxic"}]}, {"smiles": "O=P1(N(CCCl)CCCl)NCCCO1", "note": "(stereo not shown) [Cy, Cyclophosphamide]", "values": [{"measurement": "toxicity in Ctns^−/− mice", "setting": "Ctns^−/− mice; IP injection, 4 months post-transplant, compared to WT controls", "result": "not toxic"}]}, {"smiles": "NCCS", "note": "[cysteamine, mercaptoethylamine]", "values": [{"measurement": "effect on renal Fanconi syndrome", "setting": "[1]", "result": "has no effect"}]}]}
